Assay results published in US6432682B1, “Substances KF-1040 and process for producing of the same” (The Kitasato Institute, priority 2000, dated 2002).
Values after ≈ are worked out from the molar mass of the structure shown.

How the values were obtained:
[1] = system: triacylglycerol formation in Raji cell originated from human Burkitt lymphoma; experiment: Inhibitory action to formation of triacylglycerol in human-originated cells (Raji cell); format: cell-based; settings: 0.5 h, [1-14C]-oleic acid, 37° C., 30 minutes, read-out: drug concentration corresponding to 50% inhibition of triacylglycerol formation
Method: The assessment of influence of the substances on the triacylglycerol formation was performed in accordance with the method of Tomoda et al [J. Biol. Chem., 266, 4214-4219 (1991)] using human-originated cells (Raji cell originated from human Burkitt lymphoma).
A Raji cell dispersion of 2.7×10^6 cells per milliliter containing 0.36 nM [1-^14C]-oleic acid (0.02 μCi) in the presence or absence of the; substance was filled up to a total volume 200 μl, whereupon the reaction was caused at 37° C. for 30 minutes. The total lipids were extracted with chloroform/methanol (2/1) mixture. The subsequent procedures were carried out in the same manner as in the above experiment (1) “inhibitive action to rat-originated diacylglycerol-acyltransferase”.
The calculation of the drug concentration corresponding to 50% inhibition of triacylglycerol formation gives the values of 10 μg/ml for the KF-1040 substance A and 10 μg/ml for the KF-1040 substance B.

[2] = molecular target: diacylglycerol:acyltransferase; experiment: Inhibitory action to rat-originated diacylglycerol:acyltransferase (rat liver microsomal fraction); format: biochemical; settings: 23° C., 15 minutes
Method: The activity of diacylglycerol:acyltransferase was determined by the modified method of Mayorek and Bar-Tana [J. Biol. Chem., 260, 6528-6532 (1985)].
Thus, a microsomal fraction prepared from rat liver was used as the enzyme source. To a 175 mM Tris-HCl buffer (pH 8.0) containing 8 mM of MgCl2, 1 mg/ml of bovine, serum albumin and 2.5 mM of diisopropyl fluorophosphate, there were added 0.75 mM of dioleoylglycerol and 30 μM of [1-^14C]-palmitoyl-CoA (0.02 μCi) and the total volume was adjusted to 200 μl, whereupon the enzymatic reaction mixture was incubated at 23° C. for 15 minutes. The total lipids were extracted with chloroform/methanol mixture and each lipid was separated by a TLC (with Kieselgel GF254 and a developer of petroleum ether/diethyl ether/acetic acid of 80/20/1), followed by determination of the radioactivity of the triacylglycerol fraction using RADIOSCANNER (of the firm AMBIS System Inc.) to determine the diacylglycerol:acyltransferase activity.

[3] = Acidic or alkaline nature; format: physicochemical
[4] = molecular target: T1, acid sphingomyelinase originated from human placenta (Homo sapiens, UniProt P17405); experiment: Influence on human placenta-originated acid sphingomyelinase; format: biochemical; settings: human placenta enzyme (Sigma), pH 5.0, 37° C., 30 minutes; read-out: concentration corresponding to 50% inhibition of acid sphingomyelinase (converted)
T1 construct: an acid sphingomyelinase originated from human placenta (a product of the firm Sigma) was used as the enzyme source; purchased Sigma; host or cells: human placenta
T1 sequence (P17405 47-631): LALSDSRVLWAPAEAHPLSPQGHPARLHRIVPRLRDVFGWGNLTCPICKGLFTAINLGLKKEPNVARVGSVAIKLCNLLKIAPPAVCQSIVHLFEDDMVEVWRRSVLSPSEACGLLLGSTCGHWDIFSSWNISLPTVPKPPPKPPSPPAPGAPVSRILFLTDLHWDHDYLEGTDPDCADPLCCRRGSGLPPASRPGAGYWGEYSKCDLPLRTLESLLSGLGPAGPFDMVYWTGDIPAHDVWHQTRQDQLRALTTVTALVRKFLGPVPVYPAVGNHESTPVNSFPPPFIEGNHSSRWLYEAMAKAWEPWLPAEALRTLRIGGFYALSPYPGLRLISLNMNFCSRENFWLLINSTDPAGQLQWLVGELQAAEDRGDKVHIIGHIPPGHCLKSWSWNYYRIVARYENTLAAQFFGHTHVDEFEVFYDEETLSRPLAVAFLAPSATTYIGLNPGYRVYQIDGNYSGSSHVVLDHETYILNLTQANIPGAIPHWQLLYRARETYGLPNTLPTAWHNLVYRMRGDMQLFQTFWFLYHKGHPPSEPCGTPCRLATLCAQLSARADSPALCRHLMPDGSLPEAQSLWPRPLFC
Method: The assessment of influence of the substances on human placenta-originated acidic sphingomyelinase was performed in accordance with the method of Jones et al [Biochem. Journal, 195, 373-382 (1981)] with partial modification.
Thus, an acid sphingomyelinase originated from human placenta (a product of the firm Sigma) was used as the enzyme source and thereto were added 250 mM of sodium acetate buffer solution (pH 5.0), 0.1% of NP-40 (of the firm Sigma), 25 μM [N-methyl-^3H]-sphingomyelin (0.006 μCi) and various concentrations of the substance, and the mixture was filled up to a total volume of 50 μl. After the reaction at 37° C. for 30 minutes, 200 μl of chloroform/methanol mixture (1/2 volume ratio) was added to the reaction mixture to separate the reaction product [^3H]-phosphocholine from the starting material [^3H]-sphingomyelin. The supernatant layer was taken up into a 50 μl vial. The amount of [^3H]-phosphocholine was quantitatively determined by a liquid scintillation counter to estimate the acid sphingomyelinase activity.

Solubility in solvents = format: physicochemical; settings: in methanol, benzene, chloroform and ethyl acetate

IC50 [1] | drug concentration corresponding to 50% inhibition of diacylglycerol:acyltransferase [2] | Acidic or alkaline nature [3] | IC50 [4] | Solubility in solvents (Solubility in solvents) | Compound
10 µg/mL (≈ 12.9 µM) | 16 µg/mL | neutral | 61.8 µM | solule in methanol, benzene, chloroform | CCC(C)CC(C)CC(C)C(OC1OC(CO)C(O)C(O)C1O)C(C)C=C(C)C(O)C(C)C=C(C)C(O)C(C)C=C(C)C(=O)OCC(O)C(O)C(O)CO (stereo not shown) [KF-1040 substance A]
10 µg/mL (≈ 12.2 µM) | 9.0 µg/mL | neutral | 29.3 µM | soluble in methanol, benzene, chloroform | CCC(C)CC(C)CC(C)C(OC1OC(COC(C)=O)C(O)C(O)C1O)C(C)C=C(C)C(O)C(C)C=C(C)C(O)C(C)C=C(C)C(=O)OCC(O)C(O)C(O)CO (stereo not shown) [KF-1040 substance B]
